Assay results: BindingDB's records for doi:10.1016/s0006-2952(97)00433-4 (Tokyo Dental College, 1998)
“And” between values parts separate entries of the source, which are not always exact repeats. Identical values can stand only once.

Molecular target: Gamma-aminobutyric acid receptor subunit alpha-1 (Rattus norvegicus, UniProt P62813)
Sequence (P62813 whole entry): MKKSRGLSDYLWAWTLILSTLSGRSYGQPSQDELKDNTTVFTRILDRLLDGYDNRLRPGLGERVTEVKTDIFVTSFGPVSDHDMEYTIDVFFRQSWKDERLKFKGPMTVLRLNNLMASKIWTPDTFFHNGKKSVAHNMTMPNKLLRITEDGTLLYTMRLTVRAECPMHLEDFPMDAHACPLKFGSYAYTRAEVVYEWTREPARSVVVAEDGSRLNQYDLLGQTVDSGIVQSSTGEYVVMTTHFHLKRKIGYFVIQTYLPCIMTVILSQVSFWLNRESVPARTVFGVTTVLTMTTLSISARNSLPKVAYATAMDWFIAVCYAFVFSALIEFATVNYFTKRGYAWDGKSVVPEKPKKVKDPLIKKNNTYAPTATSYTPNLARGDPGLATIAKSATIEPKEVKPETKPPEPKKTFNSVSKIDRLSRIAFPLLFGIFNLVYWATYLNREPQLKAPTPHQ

For `CCOC(=O)c1cc2c(cn1)[nH]c1ccccc12`, the Ki was 2920 nM.

With `OCCN(CCO)c1nc(N2CCCCC2)c2nc(N(CCO)CCO)nc(N3CCCCC3)c2n1` [Dipyridamine] the Ki was 87.9 nM and 162 nM.
